The values that follow come from ChEMBL document CHEMBL1151896, “3D QSAR of novel estrogen-RGD peptide conjugates: getting insight into structural dependence of anti-osteoporosis activity and side effect of estrogen in ERT” (Bioorg Med Chem, 2009).

For data set [1], the system named is Mus musculus. Kind of data set: Antiosteoporosis activity against ovariectomized ICR mouse assessed as serum calcium level at 110.3 nmol/kg, po after 30 mins. The class given is functional.
For data set [2], the system named is Mus musculus. Put plainly: Antiosteoporosis activity against ovariectomized ICR mouse assessed as serum phosphorous level at 110.3 nmol/kg, po after 30 mins. Format: functional.
Data set [3] deals with Mus musculus. Kind of data set: Antiosteoporosis activity against ovariectomized ICR mouse assessed as serum ALP activity at 110.3 nmol/kg, po after 30 mins. The class given is functional.
In data set [4] the test system is Mus musculus. Kind of data set: Antiosteoporosis activity against ovariectomized ICR mouse assessed as dry femur weight at 110.3 nmol/kg, po after 30 mins. The class given is functional.
Data set [5] has as its system Mus musculus. Put plainly: Antiosteoporosis activity against ovariectomized ICR mouse assessed as femur ash weight at 110.3 nmol/kg, po after 30 mins. The class given is functional.
Data set [6] relates to Mus musculus. Put plainly: Antiosteoporosis activity against ovariectomized ICR mouse assessed as femur length at 110.3 nmol/kg, po after 30 mins. Format: functional.
The test system of data set [7] is Mus musculus. Put plainly: Antiosteoporosis activity against ovariectomized ICR mouse assessed as femur calcium content at 110.3 nmol/kg, po after 30 mins. The class given is functional.
In data set [8] the test system is Mus musculus. Kind of data set: Antiosteoporosis activity against ovariectomized ICR mouse assessed as femur phosphorous content at 110.3 nmol/kg, po after 30 mins. Format: functional.
Data set [9] deals with Mus musculus. Put plainly: Antiosteoporosis activity against ovariectomized ICR mouse assessed as mineral content at 110.3 nmol/kg, po after 30 mins. Format: functional.
For data set [10], the system named is Mus musculus. Put plainly: Toxicity in ovariectomized ICR mouse assessed as effect on spleen weight at 110.3 nmol/kg, po after 4 weeks. To be noted: in vivo, 672 h. The class given is organism-based.
Data set [11] deals with Mus musculus. Kind of data set: Toxicity in ovariectomized ICR mouse assessed as effect on lung weight at 110.3 nmol/kg, po after 4 weeks. Particulars: in vivo, 672 h. The class given is organism-based.
Data set [12] relates to Mus musculus. Put plainly: Toxicity in ovariectomized ICR mouse assessed as effect on kidney weight at 110.3 nmol/kg, po after 4 weeks. The class given is organism-based. Particulars: in vivo, 672 h.
Data set [13] has as its system Mus musculus. Put plainly: Toxicity in ovariectomized ICR mouse assessed as effect on liver weight at 110.3 nmol/kg, po after 4 weeks. The class given is organism-based. Particulars: in vivo, 672 h.
The subject of data set [14] is Mus musculus. Kind of data set: Toxicity in ovariectomized ICR mouse assessed as effect on body weight at 110.3 nmol/kg, po after 4 weeks. The class given is organism-based. To be noted: in vivo, 672 h.
The subject of data set [15] is Mus musculus. Put plainly: Toxicity in ovariectomized ICR mouse assessed as tail bleeding time at 110.3 nmol/kg, po for 30 mins. Format: organism-based. To be noted: in vivo, 0.5 h.
The test system of data set [16] is Mus musculus. Put plainly: Toxicity in ovariectomized ICR mouse assessed as tail bleeding time at 110.3 nmol/kg, po for 90 mins. The class given is organism-based. Particulars: in vivo, 1.5 h.
Data set [17] deals with Mus musculus. Put plainly: Toxicity in ovariectomized ICR mouse assessed as change in uterine weight at 110.3 nmol/kg, po after 4 weeks. The class given is organism-based. To be noted: in vivo, 672 h.

SMILES strings stand for the structures. Numbered stars: 1 amine (or outer) side, 2 acyl side, 3 side chain; on linkers, the order of the positions; unused ones are H or OH. Bridge positions count the residues as written; N and C are the ends. Peptide text beside a SMILES is read from it. I, II: the chains in the order shown. * marks the point of attachment. Estradiol(3-OCH2CO,17-OSuc) = C[C@]12CC[C@@H]3c4ccc(OCC(=O)[*:1])cc4CC[C@H]3[C@@H]1CC[C@@H]2OC(=O)CCC(=O)[*:2]; X1 = C[C@]12CC[C@@H]3c4ccc(OCC(=O)*)cc4CC[C@H]3[C@@H]1CCC2=O

Take `C[C@]12CC[C@@H]3c4ccc(OCC(=O)N[C@@H](CCCNC(=N)N)C(=O)NCC(=O)N[C@@H](CC(=O)O)C(=O)N[C@@H](Cc5ccccc5)C(=O)O)cc4CC[C@H]3[C@@H]1CC[C@@H]2OC(=O)CCC(=O)N[C@@H](CCCNC(=N)N)C(=O)NCC(=O)N[C@@H](CC(=O)O)C(=O)N[C@@H](Cc1ccccc1)C(=O)O` (I: RGDF-OH / II: RGDF-OH; linker I:N-II:N via Estradiol(3-OCH2CO,17-OSuc)): the Activity in the data set on Mus musculus [1] worked out at 3.19 mM; in the data set with Mus musculus [2] it was 3.09 mM; in the data set on Mus musculus [3], 15.8 U/L; in the data set with Mus musculus [4], 55.46 mg; in the data set on Mus musculus [5] it was 35.22 mg; with Mus musculus [6], 1.62 cm. Also, the Activity is 61.17% with Mus musculus [7]; 21.21% in the data set with Mus musculus [8]; 0.61% with Mus musculus [9]; “Non-toxic” with Mus musculus [10]; “Non-toxic” in the data set with Mus musculus [11]; “Non-toxic” with Mus musculus [12]. Also, the Activity entry with Mus musculus [13] is on record as “Non-toxic”; in the data set with Mus musculus [14], “Non-toxic”; in the data set with Mus musculus [15] it was 522 s; in the data set on Mus musculus [16], 524 s; in the data set with Mus musculus [17] it was 0.05 g.
On to `C[C@]12CC[C@@H]3c4ccc(OCC(=O)N[C@@H](CCCNC(=N)N)C(=O)NCC(=O)N[C@@H](CC(=O)O)C(=O)N[C@@H](CO)C(=O)O)cc4CC[C@H]3[C@@H]1CC[C@@H]2OC(=O)CCC(=O)N[C@@H](CCCNC(=N)N)C(=O)NCC(=O)N[C@@H](CC(=O)O)C(=O)N[C@@H](CO)C(=O)O` (I: RGDS-OH / II: RGDS-OH; linker I:N-II:N via Estradiol(3-OCH2CO,17-OSuc)), for which the Activity in the data set on Mus musculus [1] turned out to be 3.22 mM; in the data set with Mus musculus [2] it was 2.99 mM; in the data set with Mus musculus [3], 19.61 U/L; in the data set with Mus musculus [4], 55.22 mg; in the data set with Mus musculus [5], 35.6 mg; in the data set with Mus musculus [6] it was 1.64 cm. Also, the Activity with Mus musculus [7] is 61.05%; in the data set with Mus musculus [8], 20.35%; in the data set on Mus musculus [9] it was 0.62%; in the data set with Mus musculus [10], “Non-toxic”; in the data set on Mus musculus [11] it was “Non-toxic”; in the data set with Mus musculus [12], “Non-toxic”. The Activity entry in the data set with Mus musculus [13] is “Non-toxic”; in the data set with Mus musculus [14] it was “Non-toxic”; in the data set on Mus musculus [15], 580 s; in the data set on Mus musculus [16] it was 570 s; in the data set with Mus musculus [17], 0.05 g.
With `CC(C)[C@H](NC(=O)[C@H](CC(=O)O)NC(=O)CNC(=O)[C@H](CCCNC(=N)N)NC(=O)CCC(=O)O[C@H]1CC[C@H]2[C@@H]3CCc4cc(OCC(=O)N[C@@H](CCCNC(=N)N)C(=O)NCC(=O)N[C@@H](CC(=O)O)C(=O)N[C@H](C(=O)O)C(C)C)ccc4[C@H]3CC[C@]12C)C(=O)O` (I: RGDV-OH / II: RGDV-OH; linker I:N-II:N via Estradiol(3-OCH2CO,17-OSuc)), the Activity with Mus musculus [1] stood at 3.17 mM; in the data set with Mus musculus [2], 2.84 mM; in the data set on Mus musculus [3], 19.94 U/L; in the data set on Mus musculus [4], 56.46 mg; in the data set with Mus musculus [5] it was 35.75 mg; with Mus musculus [6] it was 1.66 cm. Besides, the Activity in the data set on Mus musculus [7] is 61.56%; in the data set with Mus musculus [8], 20.94%; with Mus musculus [9] it was 0.62%; in the data set on Mus musculus [10], “Non-toxic”; with Mus musculus [11], “Non-toxic”; in the data set on Mus musculus [12] it was “Non-toxic”. The Activity result with Mus musculus [13] was “Non-toxic”; in the data set on Mus musculus [14], “Non-toxic”; in the data set with Mus musculus [15], 591 s; in the data set on Mus musculus [16], 532 s; in the data set with Mus musculus [17] it was 0.059 g.
As for `C[C@]12CC[C@@H]3c4ccc(OCC(=O)N[C@@H](CCCNC(=N)N)C(=O)NCC(=O)N[C@@H](CC(=O)O)C(=O)N[C@@H](Cc5ccccc5)C(=O)N[C@@H](CCCNC(=N)N)C(=O)NCC(=O)N[C@@H](CC(=O)O)C(=O)N[C@@H](Cc5ccccc5)C(=O)O)cc4CC[C@H]3[C@@H]1CCC2=O` (X1-RGDFRGDF-OH), the Activity came out at 3.15 mM in the data set on Mus musculus [1]; 3.01 mM with Mus musculus [2]; 15.06 U/L in the data set on Mus musculus [3]; 55.26 mg in the data set with Mus musculus [4]; 35.24 mg in the data set with Mus musculus [5]; 1.64 cm in the data set on Mus musculus [6]. In addition, the Activity in the data set with Mus musculus [7] is given as 59.92%; in the data set with Mus musculus [8], 20.33%; in the data set on Mus musculus [9] it was 0.61%; in the data set with Mus musculus [10] it was “Non-toxic”; in the data set on Mus musculus [11], “Non-toxic”; with Mus musculus [12], “Non-toxic”. The Activity entry with Mus musculus [13] was “Non-toxic”; with Mus musculus [14], “Non-toxic”; in the data set with Mus musculus [15], 579 s; in the data set on Mus musculus [16], 574 s; in the data set on Mus musculus [17], 0.051 g.
`C[C@]12CC[C@@H]3c4ccc(OCC(=O)N[C@@H](CCCNC(=N)N)C(=O)NCC(=O)N[C@@H](CC(=O)O)C(=O)N[C@@H](CO)C(=O)N[C@@H](CCCNC(=N)N)C(=O)NCC(=O)N[C@@H](CC(=O)O)C(=O)N[C@@H](CO)C(=O)O)cc4CC[C@H]3[C@@H]1CCC2=O` (X1-RGDSRGDS-OH): the Activity worked out at 3.08 mM with Mus musculus [1]; 2.96 mM in the data set with Mus musculus [2]; 13.8 U/L in the data set with Mus musculus [3]; 55.9 mg with Mus musculus [4]; 35.78 mg in the data set with Mus musculus [5]; 1.67 cm in the data set with Mus musculus [6]. Further, the Activity in the data set with Mus musculus [7] was 59.95%; in the data set on Mus musculus [8], 21.76%; in the data set on Mus musculus [9] it was 0.62%; in the data set with Mus musculus [10], “Non-toxic”; in the data set with Mus musculus [11] it was “Non-toxic”; in the data set with Mus musculus [12] it was “Non-toxic”. The Activity result in the data set on Mus musculus [13] is recorded as “Non-toxic”; in the data set on Mus musculus [14], “Non-toxic”; in the data set with Mus musculus [15], 588 s; in the data set with Mus musculus [16] it was 516 s; in the data set on Mus musculus [17], 0.058 g.
As to `CC(C)[C@H](NC(=O)[C@H](CC(=O)O)NC(=O)CNC(=O)[C@H](CCCNC(=N)N)NC(=O)[C@@H](NC(=O)[C@H](CC(=O)O)NC(=O)CNC(=O)[C@H](CCCNC(=N)N)NC(=O)COc1ccc2c(c1)CC[C@@H]1[C@@H]2CC[C@]2(C)C(=O)CC[C@@H]12)C(C)C)C(=O)O` (X1-RGDVRGDV-OH), the Activity in the data set with Mus musculus [1] is 3 mM; in the data set with Mus musculus [2], 3.22 mM; with Mus musculus [3] it was 13.27 U/L; with Mus musculus [4], 55.39 mg; in the data set with Mus musculus [5] it was 35.29 mg; with Mus musculus [6], 1.66 cm. Besides, the Activity is given as 60.5% in the data set with Mus musculus [7]; 21.84% with Mus musculus [8]; 0.62% in the data set with Mus musculus [9]; “Non-toxic” with Mus musculus [10]; “Non-toxic” in the data set with Mus musculus [11]; “Non-toxic” in the data set on Mus musculus [12]. Moreover, the Activity result is “Non-toxic” in the data set with Mus musculus [13]; “Non-toxic” with Mus musculus [14]; 582 s in the data set on Mus musculus [15]; 514 s with Mus musculus [16]; 0.059 g with Mus musculus [17].
